# Source: ChEMBL document CHEMBL1201862, “PubChem BioAssay data set” (2004)
# The source made the active and inactive calls.
# Assays:
# J774.A1 = assay: Confirmation of image-based Screening Assay for Inhibitors of Phagocytosis. [Related pubchem assays (depositor defined):AID1029, AID1643]; type: functional, cell-based; details: Mus musculus
# [1] = target: Metabotropic glutamate receptor 4 (Rattus norvegicus, UniProt P31423); assay: Modulation of the Metabotropic Glutamate Receptor mGluR4: Rat PAM Potency. [Related pubchem assays (depositor defined):AID2437, AID2807]; type: functional
# HEK293 = assay: Fluorescence-based counterscreen for potentiators or agonists of NPY-Y1: cell-based high-throughput dose response assay for inhibitors of cyclic nucleotide gated ion channel (CNGC) activity. In this assay, the parental HEK293 cell line transfected with a cyclic-nucleotide gated ion channel (CNGC)-based cAMP sensor is used to measure inhibition of isoproterenol-induced CNGC …; type: functional; details: Homo sapiens
# [2] = target: T1, Neuropeptide Y receptor type 2 (Homo sapiens, UniProt P49146); assay: Fluorescence-based counterscreen for agonists of NPY-Y1: cell-based high-throughput dose response assay for agonists of NPY-Y2.; type: functional
# T1 sequence (P49146 whole entry): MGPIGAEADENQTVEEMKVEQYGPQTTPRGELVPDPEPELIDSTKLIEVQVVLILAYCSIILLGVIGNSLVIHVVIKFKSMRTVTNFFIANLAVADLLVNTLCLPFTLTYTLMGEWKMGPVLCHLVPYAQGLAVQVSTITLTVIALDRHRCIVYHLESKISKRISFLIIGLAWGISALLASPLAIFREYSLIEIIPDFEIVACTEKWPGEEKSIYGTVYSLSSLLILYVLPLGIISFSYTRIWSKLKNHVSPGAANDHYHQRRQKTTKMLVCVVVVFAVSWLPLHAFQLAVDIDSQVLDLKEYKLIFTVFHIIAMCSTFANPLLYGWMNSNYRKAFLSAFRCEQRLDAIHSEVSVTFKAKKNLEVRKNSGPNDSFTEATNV
# [3] = target: T2, Neuropeptide Y receptor type 1 (Homo sapiens, UniProt P25929); assay: Fluorescence-based dose response cell-based high-throughput screening assay for agonists of NPY-Y1. [Related pubchem assays: 1697 (Screening assay (NPY-Y1 agonists).), 1359 (Screening assay (NPY-Y2 potentiators or agonists).), 1304 (Screening assay (NPY-Y1 potentiators or agonists).), 1704 (Screening assay (CNGC inhibitors).), 1791 (Summary AID.)]; type: functional
# T2 sequence (P25929 whole entry): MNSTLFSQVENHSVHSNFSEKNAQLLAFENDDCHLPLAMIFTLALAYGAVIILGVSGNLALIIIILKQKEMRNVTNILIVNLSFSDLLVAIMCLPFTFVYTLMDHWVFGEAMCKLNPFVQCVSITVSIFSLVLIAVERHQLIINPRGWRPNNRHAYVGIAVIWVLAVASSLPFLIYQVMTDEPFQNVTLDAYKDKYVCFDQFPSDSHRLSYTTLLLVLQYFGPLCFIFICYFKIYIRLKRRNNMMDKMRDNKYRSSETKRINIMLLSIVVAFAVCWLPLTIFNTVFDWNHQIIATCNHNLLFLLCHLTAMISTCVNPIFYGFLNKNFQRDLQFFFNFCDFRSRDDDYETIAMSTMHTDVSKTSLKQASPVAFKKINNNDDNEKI
# Procathepsin L = Procathepsin L (Homo sapiens, UniProt P07711)
# Aspartyl aminopeptidase = Aspartyl aminopeptidase (Plasmodium falciparum 3D7, UniProt Q8I2J3)
# [4] = target: T3, Rac GTPase-activating protein 1 (Homo sapiens, UniProt Q9H0H5); assay: blockers of MgcRacGAP-driven Rac1 GTP hydrolysis – biochemical, ADP Hunter fluorescence, primary and confirmatory, confirmation (AID 624330); type: functional
# T3 sequence (Q9H0H5 whole entry): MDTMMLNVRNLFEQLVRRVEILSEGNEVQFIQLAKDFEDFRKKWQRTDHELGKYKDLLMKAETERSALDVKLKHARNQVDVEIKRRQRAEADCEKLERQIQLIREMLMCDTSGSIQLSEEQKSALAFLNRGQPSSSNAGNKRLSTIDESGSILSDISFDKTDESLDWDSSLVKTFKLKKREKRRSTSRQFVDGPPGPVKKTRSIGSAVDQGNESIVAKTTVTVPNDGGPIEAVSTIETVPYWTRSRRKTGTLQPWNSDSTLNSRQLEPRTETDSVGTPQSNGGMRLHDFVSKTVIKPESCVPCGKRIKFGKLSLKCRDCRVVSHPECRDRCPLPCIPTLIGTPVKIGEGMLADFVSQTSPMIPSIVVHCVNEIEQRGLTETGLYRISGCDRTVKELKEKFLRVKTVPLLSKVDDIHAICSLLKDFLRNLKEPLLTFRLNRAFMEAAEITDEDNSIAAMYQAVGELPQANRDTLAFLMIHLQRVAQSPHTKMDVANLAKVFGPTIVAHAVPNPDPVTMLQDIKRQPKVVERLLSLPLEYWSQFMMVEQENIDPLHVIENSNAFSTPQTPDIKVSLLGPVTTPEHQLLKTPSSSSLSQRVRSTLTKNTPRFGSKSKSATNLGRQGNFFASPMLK
# [5] = target: Acyl-homoserine lactone acylase PvdQ (Pseudomonas aeruginosa (strain LESB58), UniProt Q9I194); assay: PvdQ acylase enzyme activity blockers – biochemical, fluorescence, plate reader and imaging, cherry-picks, dose response (AID 493231)
# [6] = target: Scavenger receptor class B member 1 (Mus musculus, UniProt Q61009); assay: mouse SR-BI DiI-HDL uptake blockers – ldlA[mSR-BI] cells, fluorescence, cherry pick, dose response (AID 493194); type: functional, cell-based;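 also: cellular uptake of fluorescent DiI-labeled HDL measured as cell fluorescence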
# Scavenger receptor class B member 1, sequence (Q61009 whole entry): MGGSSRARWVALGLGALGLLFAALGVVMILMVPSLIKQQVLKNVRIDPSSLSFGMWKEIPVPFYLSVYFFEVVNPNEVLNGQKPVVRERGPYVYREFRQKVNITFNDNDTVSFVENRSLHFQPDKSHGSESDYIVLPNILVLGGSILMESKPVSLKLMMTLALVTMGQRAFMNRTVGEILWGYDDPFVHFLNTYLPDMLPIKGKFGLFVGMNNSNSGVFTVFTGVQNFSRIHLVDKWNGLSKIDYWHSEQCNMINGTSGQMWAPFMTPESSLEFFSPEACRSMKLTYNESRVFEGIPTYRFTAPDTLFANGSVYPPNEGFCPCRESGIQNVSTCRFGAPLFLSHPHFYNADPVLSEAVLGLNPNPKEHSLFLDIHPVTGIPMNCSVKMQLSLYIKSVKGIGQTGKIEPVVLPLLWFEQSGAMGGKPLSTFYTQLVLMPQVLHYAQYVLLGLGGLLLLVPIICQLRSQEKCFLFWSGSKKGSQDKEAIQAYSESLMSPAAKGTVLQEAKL
# Aspartyl aminopeptidase, sequence (Q8I2J3 whole entry): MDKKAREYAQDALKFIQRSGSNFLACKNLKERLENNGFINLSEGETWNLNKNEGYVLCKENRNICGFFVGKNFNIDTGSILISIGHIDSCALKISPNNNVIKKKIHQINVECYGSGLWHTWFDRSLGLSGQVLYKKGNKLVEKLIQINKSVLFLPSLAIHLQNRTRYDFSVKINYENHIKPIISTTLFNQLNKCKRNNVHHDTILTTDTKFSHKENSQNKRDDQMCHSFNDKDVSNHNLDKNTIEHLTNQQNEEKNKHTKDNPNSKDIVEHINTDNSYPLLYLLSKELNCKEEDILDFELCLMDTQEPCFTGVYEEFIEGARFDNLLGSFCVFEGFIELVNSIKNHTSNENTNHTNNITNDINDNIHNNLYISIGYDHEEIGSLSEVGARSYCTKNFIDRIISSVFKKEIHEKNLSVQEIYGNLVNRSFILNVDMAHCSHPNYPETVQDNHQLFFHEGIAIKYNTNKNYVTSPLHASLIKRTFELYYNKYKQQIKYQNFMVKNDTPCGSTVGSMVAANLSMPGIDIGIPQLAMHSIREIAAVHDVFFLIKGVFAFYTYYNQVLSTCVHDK
# Procathepsin L, sequence (P07711 whole entry): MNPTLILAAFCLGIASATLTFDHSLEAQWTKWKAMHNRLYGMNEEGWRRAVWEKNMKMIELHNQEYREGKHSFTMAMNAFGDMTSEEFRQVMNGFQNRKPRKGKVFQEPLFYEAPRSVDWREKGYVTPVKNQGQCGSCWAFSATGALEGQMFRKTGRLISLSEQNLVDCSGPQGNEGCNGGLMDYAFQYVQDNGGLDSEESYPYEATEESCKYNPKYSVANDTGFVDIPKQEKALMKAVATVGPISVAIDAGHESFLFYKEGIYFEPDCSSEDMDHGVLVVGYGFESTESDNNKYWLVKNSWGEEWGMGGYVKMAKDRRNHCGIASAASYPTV
# Acyl-homoserine lactone acylase PvdQ, sequence (Q9I194 24-193 limits assumed): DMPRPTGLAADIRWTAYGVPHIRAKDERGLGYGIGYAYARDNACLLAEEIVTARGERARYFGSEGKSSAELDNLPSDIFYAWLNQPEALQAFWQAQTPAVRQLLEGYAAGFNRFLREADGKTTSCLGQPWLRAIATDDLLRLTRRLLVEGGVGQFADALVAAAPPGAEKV
# Acyl-homoserine lactone acylase PvdQ, sequence (Q9I194 217-762 limits assumed): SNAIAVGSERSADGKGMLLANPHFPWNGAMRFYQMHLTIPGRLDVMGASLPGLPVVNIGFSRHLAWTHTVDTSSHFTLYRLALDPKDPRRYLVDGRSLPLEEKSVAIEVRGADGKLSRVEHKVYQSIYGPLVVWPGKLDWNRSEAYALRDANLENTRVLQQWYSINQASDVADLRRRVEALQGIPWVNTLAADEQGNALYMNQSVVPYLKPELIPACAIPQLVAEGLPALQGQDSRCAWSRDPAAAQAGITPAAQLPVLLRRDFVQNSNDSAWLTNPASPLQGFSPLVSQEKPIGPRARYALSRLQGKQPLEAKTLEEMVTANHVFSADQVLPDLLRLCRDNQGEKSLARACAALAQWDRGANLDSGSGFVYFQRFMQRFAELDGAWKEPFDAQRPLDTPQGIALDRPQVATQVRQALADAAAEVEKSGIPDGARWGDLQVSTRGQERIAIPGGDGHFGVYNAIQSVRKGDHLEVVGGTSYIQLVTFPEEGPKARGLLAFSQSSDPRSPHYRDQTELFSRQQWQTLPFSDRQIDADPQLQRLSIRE
# Metabotropic glutamate receptor 4, sequence (P31423 whole entry): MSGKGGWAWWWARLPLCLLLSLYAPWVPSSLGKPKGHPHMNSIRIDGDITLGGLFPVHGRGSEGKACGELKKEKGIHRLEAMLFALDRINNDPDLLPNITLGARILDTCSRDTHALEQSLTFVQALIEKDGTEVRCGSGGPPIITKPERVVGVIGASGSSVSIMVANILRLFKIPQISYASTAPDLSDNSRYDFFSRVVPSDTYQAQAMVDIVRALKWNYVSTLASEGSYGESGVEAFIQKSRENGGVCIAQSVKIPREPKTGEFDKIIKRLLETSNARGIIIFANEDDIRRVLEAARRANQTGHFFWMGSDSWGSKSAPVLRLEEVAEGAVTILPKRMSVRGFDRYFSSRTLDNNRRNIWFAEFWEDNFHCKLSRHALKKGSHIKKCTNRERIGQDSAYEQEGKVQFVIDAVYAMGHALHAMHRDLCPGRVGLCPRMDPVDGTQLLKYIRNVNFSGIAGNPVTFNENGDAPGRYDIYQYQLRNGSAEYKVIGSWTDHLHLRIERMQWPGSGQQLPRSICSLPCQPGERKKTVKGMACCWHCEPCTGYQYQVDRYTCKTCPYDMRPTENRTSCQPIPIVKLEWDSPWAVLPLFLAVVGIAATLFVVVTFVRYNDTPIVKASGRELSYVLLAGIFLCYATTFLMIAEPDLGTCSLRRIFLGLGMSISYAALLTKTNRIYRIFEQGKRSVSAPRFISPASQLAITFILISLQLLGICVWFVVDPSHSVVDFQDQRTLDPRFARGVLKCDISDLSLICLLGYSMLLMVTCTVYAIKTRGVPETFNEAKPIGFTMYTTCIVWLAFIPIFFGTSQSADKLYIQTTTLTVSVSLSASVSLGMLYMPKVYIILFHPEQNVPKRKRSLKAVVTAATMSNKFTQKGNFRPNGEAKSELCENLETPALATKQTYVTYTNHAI
smiles,measurement,setting,value
Cn1cc(C=Nn2cnc3scc(-c4ccc(Cl)cc4)c3c2=O)c2ccccc21,IC50,J774.A1,< 0.05 µM (inactive)
O=C(Nc1ccc(NC(=O)c2ccccc2Cl)c(Cl)c1)c1ccccn1,EC50,[1],0.75 µM (active)
OC(CNC1Cc2ccccc2C1)COc1ccc(Cl)cc1 (stereo not given),IC50,HEK293,> 3.94 µM (active)
same,EC50,[2],> 35.4 µM (not active)
same,EC50,[3],11.6 µM (not active)
Cc1cc(O)nc2c(N=Nc3ccc(O)cc3)c(N)nn12,IC50,Procathepsin L,> 59.6 µM (not active)
same,IC50,Aspartyl aminopeptidase,1.51 µM (active)
same,IC50,[4],12.1 µM (active)
N#Cc1cc([N+](=O)[O-])ccc1N1CCCC1,AC50,[5],3.79 µM (active)
COc1cc(OC)cc(C(=O)Nc2cccc(NC(=O)c3cc(OC)cc(OC)c3)n2)c1,AC50,[6],45.9 µM (active)
